Results from patent US20110009435A1, “HETERO BICYCLIC CARBOXAMIDE DERIVATIVES AND THEIR PHARMACEUTICAL USE AND COMPOSITIONS” (Pfizer, Inc., priority 2007, published 2011).

Key:
Human recombinant MMP-1 = molecular target: T1, Human recombinant MMP-1 (Homo sapiens, UniProt P03956); test: In vitro MMP inhibition assay, MMP-1 (fluorogenic peptide substrate cleavage, Ki); type: biochemical; conditions: human MMP-1, full length (FL); read-out: hMMP Ki 01/FL
T1 construct: made in house; host or cells: MMP-1-transfected HT-1080 cells
T1 sequence (P03956 100-469): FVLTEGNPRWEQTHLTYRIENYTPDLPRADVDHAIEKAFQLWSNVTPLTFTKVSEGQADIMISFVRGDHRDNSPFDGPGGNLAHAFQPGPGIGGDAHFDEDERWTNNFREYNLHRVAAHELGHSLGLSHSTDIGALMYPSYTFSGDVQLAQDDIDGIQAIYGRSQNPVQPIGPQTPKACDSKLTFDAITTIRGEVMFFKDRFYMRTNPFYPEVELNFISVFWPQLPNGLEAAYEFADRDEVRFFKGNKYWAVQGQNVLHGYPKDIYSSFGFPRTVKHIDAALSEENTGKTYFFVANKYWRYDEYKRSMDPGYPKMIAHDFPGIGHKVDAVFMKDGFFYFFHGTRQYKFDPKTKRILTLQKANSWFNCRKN
Procedure: Matrix Metalloproteinase inhibitor compounds were analyzed in in vitro MMP Inhibition assays to determine their ability to inhibit the MMP cleavage of peptide substrates. Inhibition constants (Ki) were calculated from the assayed compound-MMP interactions.
Human recombinant MMP-1, MMP-2, MMP-3, MMP-7, MMP-9, MMP-12, MMP-13, MMP-14 and MMP-15 were used in these assays. The enzymes are prepared following known laboratory procedures. Protocols for the preparation and use of these enzymes are available in the scientific literature. See, e.g., Enzyme Nomenclature (Academic Press, San Diego, Calif., 1992) and the citations therein. See also Frije et al., J. Biol. Chem., 26(24), 16766-73 (1994).
The MMP-1 proenzyme may be purified from spent media of MMP-1-transfected HT-1080 cells and the protein purified on a zinc chelating column. The MMP-2 proenzyme may be purified by gelatin Sepharose chromatography from MMP-2-transfected p2AHT2 cells. […]
The inhibitors are analyzed using a single low enzyme concentration with a single substrate concentration fixed at or below the Km. […] Apparent inhibitory constants are determined by non-linear regression of reaction velocity as a function of inhibitor and enzyme concentration using Morrison's equation, as described by Kuzmic, Anal. Biochem. 286, 45-50 (2000). […]

Human recombinant MMP-13 = molecular target: T2, Human recombinant MMP-13 (Homo sapiens, UniProt P45452); test: In vitro MMP inhibition assay, MMP-13 (fluorogenic peptide substrate cleavage, Ki); type: biochemical; conditions: human MMP-13, full length (FL); read-out: hMMP Ki 13/FL
T2 construct: made in house; host or cells: baculovirus expression (insect cells)
Procedure, shortened: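 Baculovirus-expressed proenzyme, APMA- or trypsin-activated, preincubated 1 h at room temperature with inhibitor in pH 7.5 Tris/NaCl/CaCl2 buffer, 1% DMSO. Then 4 μM MCA/Dpa quenched peptide added; fluorescence rate read at 330/420 nm. Ki from Morrison-equation regression, substrate at or below Km, uncorrected.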

Ki (Human recombinant MMP-1): > 10 µM
Ki (Human recombinant MMP-13): 0.118 nM
Structure (SMILES): COc1cccc(CNC(=O)c2nc3ccc(F)c(OCCC4CCN(C(=O)CO)CC4)c3c(=O)[nH]2)c1 [Example 34, 6-fluoro-5-[2-(1-glycoloylpiperidin-4-yl)ethoxy]-N-(3-methoxybenzyl)-4-oxo-3,4-dihydroquinazoline-2-carboxamide]
